In ChEMBL document CHEMBL1158314, “Antimycobacterial cycloartanes from Borrichia frutescens” (J Nat Prod, 1996):
In brackets after ≈: the same amount, converted by molar mass.

Experiments:
[1] = system: Mycobacterium tuberculosis; assay: Antimycobacterial activity against Mycobacterium tuberculosis H37Rv after 3 days by radiorespirometric assay; assay type: functional; settings: 72 h
[2] = system: Vero; assay: Cytotoxicity against african green monkey Vero cells after 72 hrs; assay type: cell-based; settings: Chlorocebus sabaeus

SMILES | MIC [1] [µg/mL] | IC50 [2] [µg/mL]
CC(C)(O)[C@@H]1CC[C@](C)([C@H]2C(O)C[C@@]3(C)[C@@H]4CC[C@H]5C(C)(C)C(=O)CC[C@@]56C[C@@]46CC[C@]23C)O1 (stereo partly specified) [ARGENTATINE A] | > 128 | 
CC(C)=C[C@H](O)C[C@@H](C)[C@H]1CC[C@@]2(C)C3=C(CC[C@]12C)[C@@]1(C)CCC(=O)C(C)(C)[C@@H]1CC3 | 64 (≈ 145 µM) | 104 (≈ 235 µM)
C[C@H](CC[C@H]1OC1(C)C)[C@H]1CC[C@@]2(C)[C@@H]3CC[C@H]4C(C)(C)C(=O)CC[C@@]45C[C@@]35CC[C@]12C | 8 (≈ 18.2 µM) | 71.8 (≈ 163 µM)
CC(=O)O[C@H]1C[C@@]2(C)[C@@H](C[C@@H](O)[C@H]3[C@@]4(C)CC[C@@H](O)[C@@H](C)[C@@H]4CC[C@@]32C)/C1=C(\CCC=C(C)C)C(=O)O [FUSIDIC ACID] | 4 (≈ 7.74 µM) | 106 (≈ 205 µM)
CC(=O)O[C@H]1CC[C@]23C[C@]24CC[C@]2(C)[C@@H]([C@H](C)CC[C@H]5OC5(C)C)CC[C@@]2(C)[C@@H]4CC[C@H]3C1(C)C | > 128 | 
C[C@@H]1CC[C@H](C(C)(C)O)O[C@H]2C[C@@]3(C)[C@@H]4CC[C@H]5C(C)(C)C(=O)CC[C@@]56C[C@@]46CC[C@]3(C)[C@@H]12 [ARGENTATINE B] | > 128 | 
C[C@H](CC[C@H]1OC1(C)C)[C@H]1CC[C@@]2(C)[C@@H]3CC[C@H]4C(C)(C)[C@@H](O)CC[C@@]45C[C@@]35CC[C@]12C | 8 (≈ 18.1 µM) | 39.8 (≈ 89.9 µM)
